target: T1, His-tagged Parp-1 (Homo sapiens, UniProt P09874); experiment: PARP-1 autoparsylation assay (HTRF); assay type: biochemical
T1 construct: purchased Enzo Life Sciences GmbH, Lörrach, Germany
Excerpt: Description of the PARP1 Assay
Biochemical Activity Testing of PARP-1: Autoparsylation Assay
The autoparsylation assay is run in two steps: the enzymatic reaction in which His-tagged Parp-1 transfers biotinylated ADP-ribose/ADP-ribose to itself from biotinylated NAD/NAD as co-substrate and the detection reaction where a time resolved FRET between cryptate labelled anti-His antibody bound to the His tag of the enzyme and Xlent® labelled-streptavidin bound the biotin-parsylation residue is analysed. The autoparsylation activity is detectable directly via the increase in HTRF signal.
The autoparsylation assay is performed as 384-well HTRF® (Cisbio, Codolet, France) assay format in Greiner low volume nb 384-well microtiter plates. 35 nM His-tagged Parp-1 (human, recombinant, Enzo Life Sciences GmbH, Lörrach, Germany) and a mixture of 125 nM bio-NAD (Biolog, Life science Inst., Bremen, Germany) and 800 nM NAD as co-substrate are incubated in a total volume of 6 μl (100 mM Tris/HCl, 4 mM Mg-chloride, 0.01% IGEPAL® CA630, 1 mM DTT, 0.5% DMSO, pH 8, 13 ng/μl activated DNA (BPS Bioscience, San Diego, US)) in the absence or presence of the test compound (10 dilution concentrations) for 150 min at 23° C. The reaction is stopped by the addition of 4 μl of the Stop/detection solution (70 nM SA-Xlent® (Cisbio, Codolet, France), 2.5 nM Anti-His-K® (Eu-labelled anti-His, Cisbio, Codolet, France) in 50 mM HEPES, 400 mM KF, 0.1% BSA, 20 mM EDTA, pH 7.0). After 1 h incubation at room temperature the HTRF iss measured with an Envision multimode reader (Perkin Elmer LAS Germany GmbH) at excitation wavelength 340 nm (laser mode) and emission wavelengths 615 nm and 665 nm. The ratio of the emission signals is determined. The full value used is the inhibitor-free reaction. The pharmacological zero value used is Olaparib (LClabs, Woburn, US) in a final concentration of 1 The inhibitory values (IC50) are determined using either the program Symyx Assay Explorer® or Condosseo® from GeneData.

T1 sequence (P09874 whole entry): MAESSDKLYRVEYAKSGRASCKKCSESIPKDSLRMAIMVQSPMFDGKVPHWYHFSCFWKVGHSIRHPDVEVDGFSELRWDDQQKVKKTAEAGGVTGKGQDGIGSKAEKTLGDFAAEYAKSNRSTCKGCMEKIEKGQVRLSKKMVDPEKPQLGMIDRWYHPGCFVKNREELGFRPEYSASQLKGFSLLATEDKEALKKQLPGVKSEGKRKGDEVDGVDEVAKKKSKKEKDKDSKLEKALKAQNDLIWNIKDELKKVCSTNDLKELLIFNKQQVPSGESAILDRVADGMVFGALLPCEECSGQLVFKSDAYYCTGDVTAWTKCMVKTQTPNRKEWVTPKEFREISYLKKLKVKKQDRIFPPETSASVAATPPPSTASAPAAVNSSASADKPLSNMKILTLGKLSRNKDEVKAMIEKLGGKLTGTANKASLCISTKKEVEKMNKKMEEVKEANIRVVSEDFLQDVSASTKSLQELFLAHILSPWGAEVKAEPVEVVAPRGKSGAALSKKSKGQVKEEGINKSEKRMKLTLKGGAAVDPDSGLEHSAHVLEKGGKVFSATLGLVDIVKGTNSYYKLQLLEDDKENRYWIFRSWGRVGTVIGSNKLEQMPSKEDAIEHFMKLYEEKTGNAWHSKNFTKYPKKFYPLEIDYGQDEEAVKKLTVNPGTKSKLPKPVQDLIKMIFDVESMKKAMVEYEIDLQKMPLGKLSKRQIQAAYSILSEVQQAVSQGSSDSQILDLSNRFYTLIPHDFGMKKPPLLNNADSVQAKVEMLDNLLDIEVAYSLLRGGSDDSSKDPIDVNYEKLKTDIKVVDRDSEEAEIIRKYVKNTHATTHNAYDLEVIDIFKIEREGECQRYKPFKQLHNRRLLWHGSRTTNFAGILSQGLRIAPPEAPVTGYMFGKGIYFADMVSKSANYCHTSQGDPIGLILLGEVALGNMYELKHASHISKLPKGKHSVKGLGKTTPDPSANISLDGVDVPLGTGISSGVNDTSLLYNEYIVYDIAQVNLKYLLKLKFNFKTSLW

`O=c1[nH]c(-c2ccc(C3(O)CCCC3)cc2)nc2ccc(F)cc12` [Compound A16, 6-fluoro-2-[4-(1-hydroxycyclopentyl)phenyl]-3H-quinazolin-4-one] and `CCC(O)(CC)c1ccc(-c2nc3ccc(F)cc3c(=O)[nH]2)cc1` [Compound A14, 2-[4-(1-ethyl-1-hydroxy-propyl)phenyl]-6-fluoro-3H-quinazolin-4-one] fall in the same range of IC50: 0.3 to 3 µM for the first, 0.3 to 3 µM for the second.

Compared with `Cc1cc(F)cc2c(=O)[nH]c(-c3ccc(N4CCC(CO)CC4)cc3)nc12` [Compound A31, 6-fluoro-2-[4-(4-hydroxymethyl-piperidin-1-yl)-phenyl]-8-methyl-3H-quinazolin-4-one], `Cc1cc(F)cc2c(=O)[nH]c(-c3ccc(N4CCC(O)CC4)cc3)nc12` [Compound A29, 6-fluoro-2-[4-(4-hydroxy-piperidin-1-yl)-phenyl]-8-methyl-3H-quinazolin-4-one] is lower in IC50: 0.3 to 3 µM for the first, under 0.3 µM for the second.

Compound `CC(C)(O)c1ccc(-c2nc3c(F)cc(F)c(F)c3c(=O)[nH]2)cc1` [Compound A26, 5,6,8-trifluoro-2-[4-(1-hydroxy-1-methyl-ethyl)-phenyl]-3H-quinazolin-4-one] has an IC50 of 0.3 to 3 µM.

Source: patent US9388142B2, “Quinazolinone derivatives as PARP inhibitors” (MERCK PATENT GMBH, priority 2012, dated 2016)
